Where a name gives a salt, the structure may show the parent alone.
What was measured:
HIV-1 (H9IIIB strain) = assay: Antiviral acute infection assay in cell culture (Spread); type: cell-based; details: Human immunodeficiency virus 1, T-lymphoid, HIV-1 H9IIIB infection of MT-4 human T-lymphoid cells in 10% FBS; mean of at least two independent experiments
From the text: Antiviral Assays in Cell Culture (“Spread”)
Acute Infection Assay (“Spread”) data were generated using HIV-1 (H9IIIB strain) infection of MT-4 human T-lymphoid cells in 10% FBS, and according to the methods disclosed by J. P. Vacca et al, “L-735,524: An orally bioavailable human immunodeficiency virus type 1 protease inhibitor,” Proc. Natl. Acad. Sci. USA, Vol. 91, pp. 4096-4100 (April 1994).

wildtype HIV-1 protease = target: T1, wildtype HIV-1 protease (Human immunodeficiency virus type 1 group M subtype B, UniProt P04585); assay: Assay for inhibition of microbial expressed HIV protease (Pepcleav); type: biochemical; details: wild type HIV-1 protease expressed in E. coli, peptide substrate, pH 5.5; mean of at least two independent experiments; read-out: Pepcleav
T1 construct: the wildtype HIV-1 protease (which was expressed in Escherichia coli); made in house; host or cells: Escherichia coli
In short: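 E. coli-expressed wild-type HIV-1 protease (20 pM) preincubated 30 min at room temperature with inhibitor in pH 5.5 sodium acetate/NaCl/BSA buffer, then 400 μM Val-Ser-Gln-Asn-(βnaphthyl)Ala-Pro-Ile-Val added for 1 h at 30 °C. Quenched with formic acid; product quantified by LC-MS/MS peak area, indinavir internal standard.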

Compound | EC50 (HIV-1 (H9IIIB strain)) | IC50 (wildtype HIV-1 protease)
N[C@H](C(=O)Nc1cncc(F)c1CC[C@@H]1CN[C@H](COC(=O)NC[C@H]2CCCO2)CO1)C(c1ccc(F)cc1)c1ccc(F)cc1 [Example 215, 4-fluoro-β-(4-fluorophenyl)-N-[5-fluoro-4-(2-{(2R,5S)-5-[({[(2R)-tetrahydrofuran-2-ylmethyl]carbamoyl}oxy)methyl]morpholin-2-yl}ethyl)pyridin-3-yl]-L-phenylalaninamide] | 25 nM | 3.5 nM
N[C@H](C(=O)Nc1cncc(F)c1CC[C@@H]1CN[C@H](COC(=O)NCC2CNC(=O)O2)CO1)C(c1ccc(F)cc1)c1ccc(F)cc1 (stereo partly drawn) [Example 240, 4-fluoro-N-[5-fluoro-4-(2-{(2R,5S)-5-[({[(2-oxo-1,3-oxazolidin-5-yl)methyl]carbamoyl}oxy)methyl]morpholin-2-yl}ethyl)pyridin-3-yl]-β-(4-fluorophenyl)-L-phenylalaninamide] | 5000 nM | 39 nM
N[C@H](C(=O)Nc1cncc(F)c1CC[C@@H]1CN[C@H](COC(=O)NCC(F)(F)F)CO1)[C@H](c1ccc(F)cc1)c1cccc(F)c1 (stereo in doubt) [Example 92] | 43 nM | 4.4 nM
CC1(CNC(=O)OC[C@@H]2CO[C@H](CCc3c(F)cncc3NC(=O)[C@@H](N)C(c3ccc(F)cc3)c3ccc(F)cc3)CN2)CCCO1 (stereo partly drawn) [Example 123, 4-Fluoro-N-[5-fluoro-4-(2-{(2R,5S)-5-[({[(2-methyltetrahydrofuran-2-yl)methyl]carbamoyl}oxy)methyl]morpholin-2-yl}ethyl)pyridin-3-yl]-β-(4-fluorophenyl)-L-phenylalaninamide] | 19 nM | 3.2 nM
O=C(C[C@H](c1ccc(F)cc1)c1ccc(Cl)cc1)Nc1cccc(F)c1CC[C@@H]1CN[C@H](COC(=O)NCC(F)(F)F)CO1 [Example 154, {(3S,6R)-6-[2-(2-{[(3R)-3-(4-chlorophenyl)-3-(4-fluorophenyl)propanoyl]amino}-6-fluoro-phenyl)ethyl]morpholin-3-yl}methyl (2,2,2-trifluoroethyl)carbamate] | 150 nM | 5.1 nM
N[C@H](C(=O)Nc1cncc(F)c1CC[C@@H]1CN[C@H](COC(=O)NCC(F)(F)F)CO1)[C@H](c1ccc(F)cc1)c1ccc(Cl)cc1 [Example 267, (βR)-β-(4-chlorophenyl)-4-fluoro-N-(5-fluoro-4-{2-[(2R,5S)-5-({[(2,2,2-trifluoroethyl)carbamoyl]oxy}methyl)morpholin-2-yl]ethyl}pyridin-3-yl)-L-phenylalaninamide] | 51 nM | 3.1 nM
COC(=O)N[C@H](C(=O)Nc1cncc(F)c1CC[C@@H]1CN[C@H](COC(=O)NCC(F)(F)F)CO1)[C@H](c1ccc(F)cc1)c1cccc(F)c1 [Example 282, (βR)-4-fluoro-β-(3-fluorophenyl)-N-(5-fluoro-4-{2-[(2R,5S)-5-({[(2,2,2-trifluoroethyl)carbamoyl]oxy}methyl)morpholin-2-yl]ethyl}pyridin-3-yl)-Nα-(methoxycarbonyl)-L-phenylalaninamide] | 25 nM | 3.7 nM
N[C@H](C(=O)Nc1cncc(F)c1CC[C@@H]1CN[C@H](COC(=O)NCC(F)(F)F)CO1)[C@H](c1ccc(F)cc1)c1cccc(Cl)c1 [Example 266, (βR)-3-chloro-β-(4-fluorophenyl)-N-(5-fluoro-4-{2-[(2R,5S)-5-({[(2,2,2-trifluoroethyl)carbamoyl]oxy}methyl)morpholin-2-yl]ethyl}pyridin-3-yl)-L-phenylalaninamide] | 50 nM | 3.1 nM
COC(=O)N[C@H](C(=O)Nc1cccc(F)c1CC[C@@H]1CN[C@H](COC(=O)NCC(F)(F)F)CO1)C(c1cccc(F)c1)c1cccc(F)c1 [Example 307, 3-fluoro-β-(3-fluorophenyl)-N-(3-fluoro-2-{2-[(2R,5S)-5-({[(2,2,2-trifluoroethyl)carbamoyl]oxy}methyl)morpholin-2-yl]ethyl}phenyl)-Nα-(methoxy-carbonyl)-L-phenylalaninamide] | 14 nM | 3 nM
N[C@H](C(=O)Nc1c(Cl)cccc1OC[C@@H]1CN[C@H](COC(=O)NCC(F)(F)F)CO1)C(c1ccc(F)cc1)c1ccc(F)cc1 [Example 260, N-(2-chloro-6-{[(2S,5S)-5-({[(2,2,2-trifluoroethyl)carbamoyl]oxy}methyl)morpholin-2-yl]methoxy}phenyl)-4-fluoro-β-(4-fluorophenyl)-L-phenylalaninamide] | 190 nM | 4.8 nM
COC(=O)N[C@H](C(=O)Nc1cncc(F)c1CC[C@@H]1CN[C@H](COC(=O)NCC(F)(F)F)CO1)[C@H](c1ccc(F)cc1)c1ccc(C(F)(F)F)cc1 [Example 286] | 37 nM | 4.6 nM
N[C@H](C(=O)Nc1cccc(F)c1CC[C@@H]1CN[C@H](COC(=O)NCC(F)(F)F)CO1)[C@H](c1ccc(F)cc1)c1ccc(Cl)cc1 [Example 273, (βR)-β-(4-chlorophenyl)-4-fluoro-N-(3-fluoro-2-{2-[(2R,5S)-5-({[(2,2,2-trifluoroethyl)carbamoyl]oxy}methyl)morpholin-2-yl]ethyl}phenyl)-L-phenylalaninamide] | 20 nM | 1.4 nM
COC(=O)N[C@H](C(=O)Nc1cncc(F)c1CC[C@@H]1CNC(COC(=O)NCC(F)(F)F)CO1)[C@@H](c1ccc(F)cc1)c1cc(F)cc(F)c1 (stereo in doubt) [Example 91, (2S,3S)-2-(Methoxycarbonylamino)-3-(4-fluorophenyl)-3-(3,5-difluorophenyl)-N-(5-fluoro-4-(2-((2R,5R)-5-(2,2,2-trifluoroethylaminocarbonyloxymethyl)morpholine-2-yl)ethyl)pyridin-3-yl)propanamide] | 16 nM | 3 nM
O=C(CC(c1ccc(F)cc1)c1ccc(F)cc1)Nc1cncc(F)c1CC[C@@H]1CN[C@H](COC(=O)NC(CO)C(F)(F)F)CO1 (stereo partly drawn) [Example 167, {(3S,6R)-6-[2-(3-{[3,3-bis(4-fluoro-phenyl)propanoyl]amino}-5-fluoropyridin-4-yl)ethyl]morpholin-3-yl}methyl [2,2,2-trifluoro-1-(hydroxymethyl)ethyl] carbamate] | 1250 nM | 1.5 nM
O=C(CC(c1ccccc1)c1ccccc1)Nc1cncc(F)c1CC[C@@H]1CN[C@H](COC(=O)NCC(F)(F)F)CO1 [Example 146, [(3S,6R)-6-(2-{3-[(3,3-diphenylpropanoyl)amino]-5-fluoropyridin-4-yl}ethyl)morpholin-3-yl]methyl (2,2,2-trifluoroethyl)carbamate] | 47 nM | 13 nM
COC(=O)N[C@H](C(=O)Nc1cccc(F)c1CC[C@@H]1CN[C@H](COC(=O)NCC(F)(F)F)CO1)[C@@H](c1ccc(F)cc1)c1cc(F)cc(F)c1 [Example 292, (βS)-3,5-difluoro-β-(4-fluorophenyl)-N-(3-fluoro-2-{2-[(2R,5S)-5-({[(2,2,2-trifluoroethyl)carbamoyl]oxy}methyl)morpholin-2-yl]ethyl}phenyl)-Nα-(methoxy-carbonyl)-L-phenylalaninamide] | 16 nM | 3.6 nM
O=C(C[C@@H](c1ccc(F)cc1)C1CCCCC1)Nc1cncc(F)c1CC[C@@H]1CN[C@H](COC(=O)NCC(F)(F)F)CO1 [Example 148, {(3S,6R)-6-[2-(3-{[(3R)-3-cyclohexyl-3-(4-fluorophenyl)propanoyl]amino}-5-fluoropyridin-4-yl)ethyl]morpholin-3-yl}methyl (2,2,2-trifluoroethyl)carbamate] | 150 nM | 22 nM
N[C@H](C(=O)Nc1cncc(F)c1CC[C@@H]1CN[C@H](COC(=O)NC[C@@H]2CCC(=O)N2)CO1)C(c1ccc(F)cc1)c1ccc(F)cc1 [Example 235, 4-fluoro-N-(5-fluoro-4-{2-[(2R,5S)-5-{[({[(2S)-5-oxopyrrolidin-2-yl]methyl}carbamoyl)oxy]methyl}morpholin-2-yl]ethyl}pyridin-3-yl)-β-(4-fluorophenyl)-L-phenylalaninamide] | 5000 nM | 97 nM
COC(=O)N[C@H](C(=O)Nc1cncc(F)c1CC[C@@H]1CN[C@H](COC(=O)NCC(F)(F)F)CO1)[C@@H](c1ccc(F)cc1)c1cccc(F)c1 [Example 281, (βS)-3-fluoro-β-(4-fluorophenyl)-N-(5-fluoro-4-{2-[(2R, 5S)-5-({[(2,2,2-trifluoroethyl)carbamoyl]oxy}methyl)morpholin-2-yl]ethyl}pyridin-3-yl)-Nα-(methoxycarbonyl)-L-phenylalaninamide] | 14 nM | 0.9 nM
N[C@H](C(=O)Nc1cccc(F)c1CC[C@@H]1CN[C@H](COC(=O)NCC(F)(F)F)CO1)[C@H](c1ccc(F)cc1)c1ccc(F)c(F)c1 [Example 270, (βR)-β-(3,4-difluorophenyl)-4-fluoro-N-(3-fluoro-2-{2-[(2R,5S)-5-({[(2,2,2-trifluoroethyl)carbamoyl]oxy}methyl)morpholin-2-yl]ethyl}phenyl)-L-phenylalaninamide] | 22 nM | 2.1 nM
N[C@H](C(=O)Nc1cccc(F)c1CC[C@@H]1CN[C@H](COC(=O)NCC(F)(F)F)CO1)C(c1ccc(F)cc1)c1ccc(F)cc1 [Example 80, 4-Fluoro-β-(4-fluorophenyl)-N-(3-fluoro-2-{2-[(2R,5S)-5-({[(2,2,2-trifluoroethyl)carbamoyl]oxy}methyl)morpholin-2-yl]ethyl}phenyl)-L-phenylalaninamide dihydrochloride] | 45 nM | 9.4 nM
